Assays:
[1] = tested on: Epidermal growth factor receptor (Homo sapiens), P00533 [UNDEFINED MUTATION]; conditions: Compound concentration 1000.0 nM
[2] = target: Eukaryotic translation initiation factor 2-alpha kinase 1 (Homo sapiens) (UniProt Q9BQI3); conditions: Compound concentration 1000.0 nM
[3] = target: Cyclin-dependent kinase 2 (Homo sapiens) (UniProt P24941); conditions: Compound concentration 1000.0 nM
[4] = target: 5-hydroxytryptamine receptor 4 (Homo sapiens) (UniProt Q13639); test: 5-HT4e (h) CEREP ligand profiling; conditions: filed as antagonist, Compound concentration 10.0 uM
[5] = tested on: ALK tyrosine kinase receptor (Homo sapiens), Q9UM73 [L1196M]; conditions: Compound concentration 1000.0 nM
[6] = target: Mitogen-activated protein kinase kinase kinase kinase 2 (Homo sapiens) (UniProt Q12851); conditions: Compound concentration 1000.0 nM
[7] = target: T1, Alpha-1B adrenergic receptor (Homo sapiens) (UniProt P35368); test: alpha 1B (h) CEREP ligand profiling; conditions: filed as antagonist, Compound concentration 10.0 uM
T1 sequence (whole entry): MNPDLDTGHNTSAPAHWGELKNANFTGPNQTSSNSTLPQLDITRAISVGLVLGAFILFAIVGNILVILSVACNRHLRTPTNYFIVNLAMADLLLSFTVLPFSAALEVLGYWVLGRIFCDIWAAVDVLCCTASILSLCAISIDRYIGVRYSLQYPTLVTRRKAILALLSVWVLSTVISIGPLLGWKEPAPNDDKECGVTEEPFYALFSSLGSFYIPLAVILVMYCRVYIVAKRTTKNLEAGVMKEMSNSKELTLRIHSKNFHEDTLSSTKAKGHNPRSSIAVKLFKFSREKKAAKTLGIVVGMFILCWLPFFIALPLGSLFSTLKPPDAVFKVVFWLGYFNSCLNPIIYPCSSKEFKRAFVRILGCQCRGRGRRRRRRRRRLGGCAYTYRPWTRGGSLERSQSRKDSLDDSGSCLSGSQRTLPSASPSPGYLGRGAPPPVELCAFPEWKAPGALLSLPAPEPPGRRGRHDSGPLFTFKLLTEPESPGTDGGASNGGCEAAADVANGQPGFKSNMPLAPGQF

[8] = target: Tyrosine-protein kinase BTK (Homo sapiens) (UniProt Q06187); conditions: Compound concentration 1000.0 nM
[9] = target: Histamine H2 receptor (Homo sapiens) (UniProt P25021); conditions: Compound concentration 10.0 uM
[10] = target: Serine/threonine-protein kinase TNNI3K (Homo sapiens) (UniProt Q59H18); conditions: Compound concentration 1000.0 nM
[11] = target: Ephrin type-A receptor 3 (Homo sapiens) (UniProt P29320); conditions: Compound concentration 1000.0 nM
[12] = target: Tumor necrosis factor (Homo sapiens) (UniProt P01375); test: TNF-alpha (h) CEREP ligand profiling; conditions: filed as agonist, Compound concentration 10.0 uM
[13] = target: Non-receptor tyrosine-protein kinase TNK1 (Homo sapiens) (UniProt Q13470); conditions: Compound concentration 1000.0 nM
[14] = target: Tyrosine-protein kinase Yes (Homo sapiens) (UniProt P07947); conditions: Compound concentration 1000.0 nM
[15] = target: Serine/threonine-protein kinase N2 (Homo sapiens) (UniProt Q16513); conditions: Compound concentration 1000.0 nM
[16] = target: Serine/threonine-protein kinase NLK (Homo sapiens) (UniProt Q9UBE8); conditions: Compound concentration 1000.0 nM
[17] = target: Ephrin type-B receptor 4 (Homo sapiens) (UniProt P54760); conditions: Compound concentration 1000.0 nM
[18] = target: Beta-1 adrenergic receptor (Homo sapiens) (UniProt P08588); conditions: Compound concentration 10.0 uM
[19] = target: Serine/threonine-protein kinase DCLK1 (Homo sapiens) (UniProt O15075); conditions: Compound concentration 1000.0 nM
[20] = target: Endothelin-1 receptor (Homo sapiens) (UniProt P25101); test: ETA (h) CEREP ligand profiling; conditions: filed as agonist, Compound concentration 10.0 uM
[21] = target: Serine/threonine-protein kinase 24 (Homo sapiens) (UniProt Q9Y6E0); conditions: Compound concentration 1000.0 nM
[22] = tested on: Phosphatidylinositol 4,5-bisphosphate 3-kinase catalytic subunit alpha isoform (Homo sapiens), P42336 [Q546K]; conditions: Compound concentration 1000.0 nM
[23] = target: Protein kinase C delta type (Homo sapiens) (UniProt Q05655); conditions: Compound concentration 1000.0 nM
[24] = target: Calcium/calmodulin-dependent protein kinase type 1B (Homo sapiens) (UniProt Q6P2M8); conditions: Compound concentration 1000.0 nM
[25] = target: Serine/threonine-protein kinase Nek10 (Homo sapiens) (UniProt Q6ZWH5); conditions: Compound concentration 1000.0 nM
[26] = target: Non-receptor tyrosine-protein kinase TYK2 (Homo sapiens) (UniProt P29597); conditions: Compound concentration 1000.0 nM
[27] = target: SRSF protein kinase 1 (Homo sapiens) (UniProt Q96SB4); conditions: Compound concentration 1000.0 nM
[28] = target: Receptor-type tyrosine-protein kinase FLT3 (Homo sapiens) (UniProt P36888); conditions: Compound concentration 1000.0 nM
[29] = target: Tyrosine-protein kinase JAK2 (Homo sapiens) (UniProt O60674); conditions: Compound concentration 1000.0 nM
[30] = target: Cyclin-dependent kinase 8 (Homo sapiens) (UniProt P49336); conditions: Compound concentration 1000.0 nM
[31] = target: Serine/threonine-protein kinase pim-2 (Homo sapiens) (UniProt Q9P1W9); conditions: Compound concentration 1000.0 nM
[32] = target: Mitogen-activated protein kinase 1 (Homo sapiens) (UniProt P28482); conditions: Compound concentration 1000.0 nM
[33] = target: D(2) dopamine receptor (Homo sapiens) (UniProt P14416); test: D2S (h) CEREP ligand profiling; conditions: filed as antagonist, Compound concentration 10.0 uM
[34] = target: Ribosomal protein S6 kinase alpha-4 (Homo sapiens) (UniProt O75676); conditions: Compound concentration 1000.0 nM
[35] = target: Dual specificity tyrosine-phosphorylation-regulated kinase 2 (Homo sapiens) (UniProt Q92630); conditions: Compound concentration 1000.0 nM
[36] = target: Serine/threonine-protein kinase PAK 5 (Homo sapiens) (UniProt Q9P286); conditions: Compound concentration 1000.0 nM
[37] = target: Serine/threonine-protein kinase MAK (Homo sapiens) (UniProt P20794); conditions: Compound concentration 1000.0 nM
[38] = target: Ribosomal protein S6 kinase alpha-4 (Homo sapiens) (UniProt O75676); conditions: Compound concentration 1000.0 nM; remark: listed apart in the source

Ribosomal protein S6 kinase alpha-4 (Homo sapiens), sequence (O75676 whole entry, looked up): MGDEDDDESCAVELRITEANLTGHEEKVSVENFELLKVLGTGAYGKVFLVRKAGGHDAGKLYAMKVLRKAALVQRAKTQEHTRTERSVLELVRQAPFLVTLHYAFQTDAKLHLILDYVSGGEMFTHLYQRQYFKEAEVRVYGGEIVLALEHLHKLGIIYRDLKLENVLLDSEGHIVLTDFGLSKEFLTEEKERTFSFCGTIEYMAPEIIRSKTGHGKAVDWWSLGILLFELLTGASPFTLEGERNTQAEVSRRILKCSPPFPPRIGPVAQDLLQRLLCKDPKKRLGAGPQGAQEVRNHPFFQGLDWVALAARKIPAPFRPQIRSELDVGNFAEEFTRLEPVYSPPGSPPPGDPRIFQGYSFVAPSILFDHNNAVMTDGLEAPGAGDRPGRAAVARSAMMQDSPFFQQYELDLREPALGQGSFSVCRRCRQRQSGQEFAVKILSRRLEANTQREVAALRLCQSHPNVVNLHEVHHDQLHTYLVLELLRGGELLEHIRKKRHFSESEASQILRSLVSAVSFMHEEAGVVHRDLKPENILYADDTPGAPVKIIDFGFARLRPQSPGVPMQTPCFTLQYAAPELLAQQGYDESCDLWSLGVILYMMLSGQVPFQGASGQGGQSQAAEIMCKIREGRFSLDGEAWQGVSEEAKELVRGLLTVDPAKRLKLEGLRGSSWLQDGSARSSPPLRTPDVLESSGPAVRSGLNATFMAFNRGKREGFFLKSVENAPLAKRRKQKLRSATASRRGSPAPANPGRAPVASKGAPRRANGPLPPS
SRSF protein kinase 1 (Homo sapiens), sequence (Q96SB4 whole entry): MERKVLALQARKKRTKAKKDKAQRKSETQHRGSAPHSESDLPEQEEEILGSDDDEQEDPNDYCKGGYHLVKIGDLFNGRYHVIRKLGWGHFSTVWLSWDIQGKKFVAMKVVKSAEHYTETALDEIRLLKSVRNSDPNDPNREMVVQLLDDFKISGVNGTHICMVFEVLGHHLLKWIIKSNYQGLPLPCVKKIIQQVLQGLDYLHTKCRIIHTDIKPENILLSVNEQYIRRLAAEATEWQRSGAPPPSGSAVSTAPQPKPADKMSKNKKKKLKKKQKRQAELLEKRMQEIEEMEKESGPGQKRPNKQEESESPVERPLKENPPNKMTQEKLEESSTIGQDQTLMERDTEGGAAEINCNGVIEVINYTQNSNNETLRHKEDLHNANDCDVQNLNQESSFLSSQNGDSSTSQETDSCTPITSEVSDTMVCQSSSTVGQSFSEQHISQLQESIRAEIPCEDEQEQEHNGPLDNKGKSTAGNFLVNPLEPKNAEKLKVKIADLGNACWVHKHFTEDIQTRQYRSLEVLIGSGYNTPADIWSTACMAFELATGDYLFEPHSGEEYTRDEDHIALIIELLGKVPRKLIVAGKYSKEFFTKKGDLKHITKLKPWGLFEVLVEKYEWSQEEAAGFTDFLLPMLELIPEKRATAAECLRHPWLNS
D(2) dopamine receptor (Homo sapiens), sequence (P14416 whole entry): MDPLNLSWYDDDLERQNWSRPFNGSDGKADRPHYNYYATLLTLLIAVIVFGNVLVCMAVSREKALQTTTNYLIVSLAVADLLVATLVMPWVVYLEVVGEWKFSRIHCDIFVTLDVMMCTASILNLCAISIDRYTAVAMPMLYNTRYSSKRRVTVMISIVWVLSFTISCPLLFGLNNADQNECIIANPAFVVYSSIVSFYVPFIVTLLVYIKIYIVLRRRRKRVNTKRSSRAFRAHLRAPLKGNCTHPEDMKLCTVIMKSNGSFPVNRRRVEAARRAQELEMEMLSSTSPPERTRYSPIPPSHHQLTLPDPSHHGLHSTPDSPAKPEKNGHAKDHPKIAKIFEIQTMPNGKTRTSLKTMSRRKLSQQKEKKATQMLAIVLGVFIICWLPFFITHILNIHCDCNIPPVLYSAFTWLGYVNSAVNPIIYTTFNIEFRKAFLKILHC
Mitogen-activated protein kinase kinase kinase kinase 2 (Homo sapiens), sequence (Q12851 whole entry): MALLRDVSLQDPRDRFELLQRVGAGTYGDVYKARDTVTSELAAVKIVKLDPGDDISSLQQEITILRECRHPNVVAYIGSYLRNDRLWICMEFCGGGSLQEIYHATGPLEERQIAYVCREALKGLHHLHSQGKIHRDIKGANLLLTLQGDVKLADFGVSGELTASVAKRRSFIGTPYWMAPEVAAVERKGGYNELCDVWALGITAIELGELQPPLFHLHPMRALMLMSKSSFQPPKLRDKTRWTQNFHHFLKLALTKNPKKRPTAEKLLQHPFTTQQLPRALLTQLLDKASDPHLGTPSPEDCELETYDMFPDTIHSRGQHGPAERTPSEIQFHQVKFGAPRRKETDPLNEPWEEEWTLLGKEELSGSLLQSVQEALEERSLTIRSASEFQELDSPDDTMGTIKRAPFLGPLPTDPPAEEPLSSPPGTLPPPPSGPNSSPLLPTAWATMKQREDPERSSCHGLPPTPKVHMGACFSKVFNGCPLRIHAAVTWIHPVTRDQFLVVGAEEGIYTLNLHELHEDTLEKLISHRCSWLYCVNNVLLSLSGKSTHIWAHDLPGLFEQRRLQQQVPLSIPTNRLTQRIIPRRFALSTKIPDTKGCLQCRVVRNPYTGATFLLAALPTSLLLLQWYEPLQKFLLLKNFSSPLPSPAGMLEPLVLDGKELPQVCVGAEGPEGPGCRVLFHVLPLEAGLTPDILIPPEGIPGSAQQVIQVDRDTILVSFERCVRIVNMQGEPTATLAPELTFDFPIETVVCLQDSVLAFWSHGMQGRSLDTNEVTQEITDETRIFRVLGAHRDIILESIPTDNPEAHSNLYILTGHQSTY
Serine/threonine-protein kinase DCLK1 (Homo sapiens), sequence (O15075 whole entry): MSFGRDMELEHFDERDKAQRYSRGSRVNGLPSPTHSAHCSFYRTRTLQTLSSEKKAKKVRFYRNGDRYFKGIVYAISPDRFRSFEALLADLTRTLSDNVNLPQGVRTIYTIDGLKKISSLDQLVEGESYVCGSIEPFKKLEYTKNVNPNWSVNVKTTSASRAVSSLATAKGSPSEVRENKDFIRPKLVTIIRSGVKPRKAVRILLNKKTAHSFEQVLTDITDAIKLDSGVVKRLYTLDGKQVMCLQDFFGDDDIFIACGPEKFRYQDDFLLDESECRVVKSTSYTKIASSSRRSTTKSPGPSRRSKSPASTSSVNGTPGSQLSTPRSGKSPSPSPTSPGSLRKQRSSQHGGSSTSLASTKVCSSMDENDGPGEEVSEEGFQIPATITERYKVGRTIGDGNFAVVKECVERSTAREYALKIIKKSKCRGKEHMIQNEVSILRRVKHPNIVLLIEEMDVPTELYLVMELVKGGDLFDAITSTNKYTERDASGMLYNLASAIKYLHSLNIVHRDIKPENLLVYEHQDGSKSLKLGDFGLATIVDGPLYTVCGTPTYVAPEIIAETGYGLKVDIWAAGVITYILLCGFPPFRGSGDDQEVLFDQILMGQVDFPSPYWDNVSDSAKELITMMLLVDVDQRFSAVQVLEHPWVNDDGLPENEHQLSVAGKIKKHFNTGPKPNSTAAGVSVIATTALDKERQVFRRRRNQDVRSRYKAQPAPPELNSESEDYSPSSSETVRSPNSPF
Serine/threonine-protein kinase 24 (Homo sapiens), sequence (Q9Y6E0 whole entry, looked up, canonical isoform): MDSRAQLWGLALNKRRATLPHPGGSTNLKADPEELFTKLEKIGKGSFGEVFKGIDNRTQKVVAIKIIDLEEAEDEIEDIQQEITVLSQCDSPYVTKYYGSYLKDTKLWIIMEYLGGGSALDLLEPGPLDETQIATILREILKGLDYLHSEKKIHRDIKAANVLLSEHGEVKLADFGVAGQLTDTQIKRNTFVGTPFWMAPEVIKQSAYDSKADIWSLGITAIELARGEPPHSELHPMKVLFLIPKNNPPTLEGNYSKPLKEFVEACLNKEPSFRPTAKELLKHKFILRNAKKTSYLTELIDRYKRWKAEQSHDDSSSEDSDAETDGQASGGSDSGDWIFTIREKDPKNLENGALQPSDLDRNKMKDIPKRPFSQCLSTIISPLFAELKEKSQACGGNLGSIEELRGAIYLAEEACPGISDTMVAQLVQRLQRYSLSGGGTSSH
Serine/threonine-protein kinase PAK 5 (Homo sapiens), sequence (Q9P286 whole entry, looked up): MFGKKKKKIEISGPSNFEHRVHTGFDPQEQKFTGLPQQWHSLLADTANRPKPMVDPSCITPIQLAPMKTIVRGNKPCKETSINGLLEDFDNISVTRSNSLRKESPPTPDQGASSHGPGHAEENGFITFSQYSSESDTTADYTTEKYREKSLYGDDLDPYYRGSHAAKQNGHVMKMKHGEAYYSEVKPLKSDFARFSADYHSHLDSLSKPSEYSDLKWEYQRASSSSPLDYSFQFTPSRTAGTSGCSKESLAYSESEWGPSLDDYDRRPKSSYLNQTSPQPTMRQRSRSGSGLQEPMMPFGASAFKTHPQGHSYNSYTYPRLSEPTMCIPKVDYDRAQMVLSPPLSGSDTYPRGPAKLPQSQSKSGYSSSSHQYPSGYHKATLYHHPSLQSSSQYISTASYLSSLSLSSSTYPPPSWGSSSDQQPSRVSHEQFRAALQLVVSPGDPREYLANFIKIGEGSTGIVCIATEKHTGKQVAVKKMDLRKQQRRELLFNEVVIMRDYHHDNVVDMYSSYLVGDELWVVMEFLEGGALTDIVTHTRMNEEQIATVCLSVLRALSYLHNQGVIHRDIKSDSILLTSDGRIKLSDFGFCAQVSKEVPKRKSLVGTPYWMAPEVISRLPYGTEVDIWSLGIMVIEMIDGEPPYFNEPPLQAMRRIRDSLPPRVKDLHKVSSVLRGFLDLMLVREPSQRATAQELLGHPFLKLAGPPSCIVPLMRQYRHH
Endothelin-1 receptor (Homo sapiens), sequence (P25101 whole entry): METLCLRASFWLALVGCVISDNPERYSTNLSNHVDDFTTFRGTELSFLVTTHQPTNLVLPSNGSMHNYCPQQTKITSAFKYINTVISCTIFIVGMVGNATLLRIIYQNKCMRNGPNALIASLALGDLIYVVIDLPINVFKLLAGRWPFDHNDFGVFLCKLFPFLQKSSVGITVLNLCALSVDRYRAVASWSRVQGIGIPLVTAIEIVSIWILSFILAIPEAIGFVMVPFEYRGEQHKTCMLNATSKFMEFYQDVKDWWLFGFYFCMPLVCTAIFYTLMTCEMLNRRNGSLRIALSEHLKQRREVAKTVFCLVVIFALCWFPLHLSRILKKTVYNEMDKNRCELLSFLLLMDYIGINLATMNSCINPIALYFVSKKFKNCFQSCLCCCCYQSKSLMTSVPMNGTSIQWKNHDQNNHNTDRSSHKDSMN

CNC(=O)Nc1ccc2c(c1)CC[C@@]21OC(=O)N(CC(=O)N(Cc2ccc(F)cc2)[C@@H](C)C(F)(F)F)C1=O [A-485]
inactive: residual activity [1] 64% | residual activity [2] 80% | residual activity [3] 100% | inhibition [4] 10% | residual activity [5] 75% | residual activity [6] 76% | inhibition [7] 4% | residual activity [8] 87% | inhibition [9] 28.2% | residual activity [10] 97% | residual activity [11] 100% | inhibition [12] 1% | residual activity [13] 86% | residual activity [14] 76% | residual activity [15] 97% | residual activity [16] 82% | residual activity [17] 80% | inhibition [18] -5.22% | residual activity [19] 96% | inhibition [20] 3% | residual activity [21] 90% | residual activity [22] 79% | residual activity [23] 76% | residual activity [24] 100% | residual activity [25] 81% | residual activity [26] 91% | residual activity [27] 95% | residual activity [28] 100% | residual activity [29] 83% | residual activity [30] 100% | residual activity [31] 98% | residual activity [32] 91% | inhibition [33] 13% | residual activity [34] 100% | residual activity [35] 88% | residual activity [36] 100% | residual activity [37] 84% | residual activity [38] 72%

CNC(=O)Nc1ccc2c(c1)[C@@]1(CC2)OC(=O)N(CC(=O)N(Cc2ccc(F)cc2)[C@@H](C)C(F)(F)F)C1=O [A-486]
inactive: residual activity [1] 85% | residual activity [2] 96% | residual activity [3] 100% | inhibition [4] 9% | residual activity [5] 88% | residual activity [6] 92% | inhibition [7] -6% | residual activity [8] 97% | inhibition [9] 6.93% | residual activity [10] 98% | residual activity [11] 100% | inhibition [12] 1% | residual activity [13] 100% | residual activity [14] 85% | residual activity [15] 100% | residual activity [16] 77% | residual activity [17] 91% | inhibition [18] -4.4% | residual activity [19] 76% | inhibition [20] -1% | residual activity [21] 100% | residual activity [22] 81% | residual activity [23] 75% | residual activity [24] 90% | residual activity [25] 91% | residual activity [26] 92% | residual activity [27] 100% | residual activity [28] 96% | residual activity [29] 100% | residual activity [30] 96% | residual activity [31] 89% | residual activity [32] 91% | inhibition [33] -3% | residual activity [34] 100% | residual activity [35] 92% | residual activity [36] 100% | residual activity [37] 100% | residual activity [38] 88%

— ChEMBL document CHEMBL4507259 (2021)
